The record followed here is a melting point compilation (Tetko et al.; mined from patent text by program, amines drawn as free bases though some values may be those of a salt).

Molecule `O=c1cc(-c2ccncn2)nc2n1CCCCC2C1CC1` (racemic) showed a melting point of 139 to 140 °C.
With `O=S1(=O)N=C2CCCN2c2ccc(Oc3cccc(O)c3)cc21`, the melting point was > 300 °C.
The same measure for `CC[C@H](C)[C@H](NC(=O)/C=C1/c2ccccc2C(=S)N[C@H]1[C@@H](C)CC)C(=O)N[C@H](C(=O)OC)[C@@H](C)CC`: 178 to 181 °C; for `CC1(C)C=C(c2ccccn2)c2cc(Cl)cc(Cl)c2OC1`: 124 °C.
Consider `CCCCc1nc(Cl)c(C(N)=O)n1Cc1ccc(-c2ccccc2C(=O)O)cc1`, for which the melting point was 200 to 202 °C.
The value for `CC(Cl)Cn1cc(-c2ccccc2)c2ccccc2c1=O` (stereo unspecified) was 141 °C; that for `COc1ccc(C(F)(F)F)cc1Nc1cccn2nc(Cl)nc12` was 144 to 146 °C; that for `O=C(CCNc1c(C(=O)O)[nH]c2cc(Cl)ccc12)c1ccccc1` was 250 to 255 °C.
Molecule `CC(=O)c1nc(Cl)ccc1N` showed a melting point of 108 to 110 °C.
`O=S(=O)(Nc1ccccc1)c1ccc(-c2cnn3c(O)ncnc23)cc1` came in with a melting point of 274 to 277 °C.
The molecule `Clc1ccc(-n2c(Cl)nc3ccccc32)c(Cl)c1` showed a melting point of 80 to 83 °C.
On to `COc1cc(C=C(N)C(C)=O)ccc1OCC(O)CNC(C)C` (stereo unspecified), for which the melting point lay within 139 to 140 °C.
The same measure for `Cc1ccc(CNc2cccc3c2CN(C2CCC(=O)NC2=O)C3=O)o1` (stereo unspecified): 242 to 244 °C; for `COC(C(=Cc1ccc(Cl)cc1)n1cncn1)C(C)(C)C` (stereo unspecified): 63 to 66 °C.
The same measure for `S=C(Nc1c(Cl)cccc1Cl)N1CCN(c2cnccn2)CC1`: 225 to 227 °C.
The value for `Oc1ccc(-c2c(Br)ccc3sc4ccccc4c23)cc1` was 185 to 186 °C; that for `CCC(CC)(CC(=O)Nc1cccc(/C=C/c2nc(C3CCC3)cs2)c1)C(=O)O` was 170 to 172 °C; that for `CC(c1ccc(OCCO)cc1)(c1ccc(OCCO)cc1)c1ccc(OCCO)cc1` was 78 to 81 °C.
In turn, `CN(C)C=NS(=O)(=O)c1cc2ccncc2s1` came in with a melting point of 169 to 171 °C.
As for `COc1ccc(CCOS(N)(=O)=O)cc1OC`, the melting point was in the range of 106 to 108 °C.
The value for `CCCCCCOc1c2c(c(-c3ccc4c(c3)OCO4)c3c4c(ccc13)OCO4)C(=O)NC2=O` was 222 to 223 °C; that for `CNC(=O)N1CC(Oc2ccc(Cl)cc2)C1` was 144 to 145 °C.
`CCOC(=O)c1c(-c2ccc(C(C)(C)C)cc2)n(C)n(-c2ccc(C#N)cc2)c1=O` showed a melting point of 202 to 204 °C.
The molecule `COc1ccc(-c2nc3cc(OC)cc(C#N)c3o2)cc1` displayed a melting point of 180 to 183 °C.
`CC(=O)c1cc(C(F)(F)F)nn1-c1ccc(NC(=O)c2ccccc2F)cc1` yielded a melting point of 188 to 189 °C.
For `O=C(Nc1nc2ccc(Sc3cnc4ccc(-c5cccc(F)c5)cn34)cc2s1)C1CC1`, the melting point was > 260 °C.
`CC(C)C(Br)C(=O)NCC(=O)O` (stereo unspecified): the melting point is 138 to 139 °C.
`CC=CC(C)=C1C(=O)OC(=O)C1c1cc(C)n(-c2ccccc2)c1C` (stereo unspecified): the melting point turned out to be 172 °C.
The value for `O=C(O)CCOCCCc1ccc(-c2nc(=O)c3ccccc3s2)nc1` was 145 to 147 °C; that for `O=C1c2ccccc2C(=O)N1CC1CC(=O)N(Cc2ccccc2)c2ccccc2N1` (stereo unspecified) was 127 to 130 °C; that for `CCOCc1cc(O)cc2cc(-c3ccc(O)cc3)oc12` was 166 to 168 °C.
As to `O=c1c2cn(S(=O)(=O)CCCCl)nc2n(CC2CC2)c(=O)n1CC1CC1`, the melting point was 95 to 97 °C.
The value for `c1ccc(C2CNc3ccccc3O2)cc1` (stereo unspecified) was 113 to 116 °C; that for `CC(C)(C)OC(=O)NC(CF)CC(=O)O` (stereo unspecified) was 112 °C; that for `CC(=O)N1CCN(CCOc2ccc(C3CCN(C4=Nn5c(nnc5C(F)(F)F)CC4)CC3)cc2)CC1` was 127 °C.
With `N#Cc1ccc(Nc2cccc(I)c2)c([N+](=O)[O-])c1`, the melting point fell in the range of 211 to 212 °C.
